Experiments:
[1] = system: Normal cells OUMS 24 (human immortalized fibroblast); assay: TUNEL staining after Ad-REIC plus HSP70 inhibitor or inducer; assay type: cell-based; details: OUMS24; Ad-REIC 20 MOI; agent 250 mM added 24 hours later; TUNEL 48 hours later
[2] = system: prostate cancer cells PC3; assay: as above; assay type: cell-based, human; details: Ad-REIC 20 MOI, agent 250 mM added 24 hours later, TUNEL 48 hours later
Procedure: Normal cells OUMS 24 (human immortalized fibroblast) and prostate cancer cells PC3 were used for comparison. The cells were infected with Ad-REIC at 20 MOI. 24 hours later, an HSP70 inhibitor (heat shock protein inhibitor I, CALBIOCHEM, BIOCHEMICALS) and an HSP70 inducer (Geranyl-Geranyl Acetone) (250 mM each) were separately added to a culture solution. 48 hours later, TUNEL staining was performed to determine influence upon apoptosis. FIGS. 12 and 13 show staining images for OUMS24 and of PC3, respectively. In FIGS. 12 and 13, images on the left side indicate TUNEL-staining results and images on the right side indicate DAPI-staining results. […] That is, apoptosis was induced in normal cells with the use of the HSP70 inhibitor in combination. On the other hand, apoptosis expression was inhibited in cancer cells with the use of the HSP70 inducer in combination. Further, apoptosis induction was promoted with the use of the HSP70 inhibitor in combination.

Compound: O=CN1CC/C(=C\c2ccc3c(c2)OCO3)C1=O [HSP70 inhibitor]
- TUNEL-positive cells with combined use with Ad-REIC [1]: a large number of TUNEL-positive cells
- TUNEL-positive cells with combined use with Ad-REIC, versus Ad-REIC alone [2]: greater than that obtained with the use of Ad-REIC alone
